Laboratory results taken from PubChem BioAssay (NCI).
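96-well plates; 48 h exposure; 5 concentrations. Endpoints by linear interpolation between flanking doses. Not reached: highest tested concentration assigned. TGI marks complete inhibition of growth.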

Assays:
Assay in all cases: inhibition of tumour cell growth, NCI panel, 48 h
[1] = test system: NCI/ADR-RES ovarian
[2] = test system: MDA-MB-231 breast
[3] = test system: PC-3 prostate
[4] = test system: NCI-H460 lung
[5] = test system: OVCAR-5 ovarian
[6] = test system: MDA-MB-435
[7] = test system: 786-0 renal
[8] = test system: OVCAR-4 ovarian
[9] = test system: MOLT-4 leukemia
[10] = test system: UO-31 renal
[11] = test system: KM12 colon
[12] = test system: SF-268 CNS
[13] = test system: NCI-H522 lung
[14] = test system: UACC-257 melanoma
[15] = test system: SR leukemia
[16] = test system: SK-OV-3 ovarian
[17] = test system: EKVX NSCLC
[18] = test system: SN12C renal
[19] = test system: HCT-15 colon
[20] = test system: HOP-62 NSCLC
[21] = test system: OVCAR-8 ovarian
[22] = test system: SK-MEL-28 melanoma
[23] = test system: COLO 205 colon
[24] = test system: LOX IMVI melanoma
[25] = test system: CCRF-CEM leukemia
[26] = test system: RPMI-8226 leukemia
[27] = test system: A549 NSCLC
[28] = test system: TK-10 renal
[29] = test system: SK-MEL-2 melanoma
[30] = test system: U251 CNS
[31] = test system: IGROV1 ovarian
[32] = test system: MALME-3M melanoma
[33] = test system: K-562 leukemia
[34] = test system: HT29 colon
[35] = test system: HCC-2998 colon
[36] = test system: HOP-92 NSCLC
[37] = test system: RXF 393 renal
[38] = test system: MCF7 breast
[39] = test system: BT-549 breast
[40] = test system: M14 melanoma
[41] = test system: HCT-116 colon
[42] = test system: MDA-N
[43] = test system: SW-620 colon
[44] = test system: HS 578T breast
[45] = test system: UACC-62 melanoma
[46] = test system: SNB-19 CNS
[47] = test system: NCI-H226 lung
[48] = test system: NCI-H23 lung
[49] = test system: A498 renal
[50] = test system: HL-60(TB) leukemia
[51] = test system: OVCAR-3 ovarian
[52] = test system: SF-539 CNS
[53] = test system: T-47D breast
[54] = test system: SK-MEL-5 melanoma
[55] = test system: SF-295 CNS
[56] = test system: ACHN renal
[57] = test system: DU-145 prostate
[58] = test system: SNB-75 CNS
[59] = test system: CAKI-1 renal

With `COc1cc2c(cc1O)CC[C@@H]1C2CC[C@@]2(C)C1CC[C@@H]2O` (some centres not stated) the TGI [1] was 2730 nM, the TGI [2] was greater than 87.1 µM and the TGI [3] was greater than 100 µM. It also gave a TGI [4] greater than 72.7 µM, a TGI [5] greater than 100 µM and a TGI [6] of 927 nM. The TGI [7] was greater than 100 µM, the TGI [8] was greater than 100 µM and the TGI [9] was 32.1 µM. It also gave a TGI [10] greater than 94.7 µM, a TGI [11] of 61.8 µM and a TGI [12] greater than 100 µM. The TGI [13] was 6.87 µM, the TGI [14] was greater than 100 µM and the TGI [15] was 5.44 µM. For the same molecule, the TGI [16] was greater than 100 µM, the TGI [17] was 44.6 µM and the TGI [18] was greater than 82 µM. It also gave a TGI [19] of 49 µM, a TGI [20] of 45.8 µM and a TGI [21] of 39.4 µM. For the same molecule, the TGI [22] was greater than 100 µM, the TGI [23] was 81.3 µM and the TGI [24] was greater than 100 µM. The TGI [25] was 22.3 µM, the TGI [26] was 13.5 µM and the TGI [27] was greater than 100 µM. For the same molecule, the TGI [28] was greater than 94.1 µM, the TGI [29] was greater than 100 µM and the TGI [30] was greater than 62.4 µM. For the same molecule, the TGI [31] was greater than 100 µM, the TGI [32] was greater than 100 µM and the TGI [33] was 26.1 µM. The TGI [34] was 64.6 µM, the TGI [35] was 34.3 µM and the TGI [36] was greater than 97.9 µM. For the same molecule, the TGI [37] was 57.6 µM, the TGI [38] was greater than 100 µM and the TGI [39] was greater than 100 µM. It also gave a TGI [40] greater than 100 µM, a TGI [41] greater than 81 µM and a TGI [42] of 574 nM. For the same molecule, the TGI [43] was greater than 100 µM, the TGI [44] was 7.63 µM and the TGI [45] was greater than 100 µM. It also gave a TGI [46] greater than 100 µM, a TGI [47] greater than 100 µM and a TGI [48] of 51.7 µM. The TGI [49] was 50.4 µM, the TGI [50] was 8.18 µM and the TGI [51] was 7.17 µM. The TGI [52] was 4.2 µM, the TGI [53] was greater than 100 µM and the TGI [54] was 36.7 µM. The TGI [55] was 16.5 µM, the TGI [56] was greater than 100 µM and the TGI [57] was greater than 100 µM. The TGI [58] was 22.1 µM and the TGI [59] was greater than 97.4 µM.

For `Cn1c(=O)c2[nH]c(CCC(=O)O)nc2n(C)c1=O`, the TGI [1] was greater than 100000 nM, the TGI [2] was greater than 100 µM and the TGI [3] was greater than 100 µM. For the same molecule, the TGI [4] was greater than 100 µM, the TGI [5] was greater than 100 µM and the TGI [6] was greater than 100000 nM. The TGI [7] was greater than 100 µM, the TGI [8] was greater than 100 µM and the TGI [10] was greater than 100 µM. For the same molecule, the TGI [11] was greater than 100 µM, the TGI [12] was greater than 100 µM and the TGI [13] was greater than 100 µM. The TGI [14] was greater than 100 µM, the TGI [15] was greater than 100 µM and the TGI [16] was greater than 100 µM. The TGI [17] was greater than 100 µM, the TGI [18] was greater than 100 µM and the TGI [19] was greater than 100 µM. The TGI [20] was greater than 100 µM, the TGI [21] was greater than 100 µM and the TGI [22] was greater than 100 µM. It also gave a TGI [23] greater than 100 µM, a TGI [24] greater than 100 µM and a TGI [25] greater than 100 µM. For the same molecule, the TGI [26] was greater than 100 µM, the TGI [27] was greater than 100 µM and the TGI [28] was greater than 100 µM. For the same molecule, the TGI [29] was greater than 100 µM, the TGI [30] was greater than 100 µM and the TGI [31] was greater than 100 µM. The TGI [32] was greater than 100 µM, the TGI [33] was greater than 100 µM and the TGI [34] was greater than 100 µM. The TGI [35] was greater than 100 µM, the TGI [36] was greater than 100 µM and the TGI [37] was greater than 100 µM. For the same molecule, the TGI [38] was greater than 100 µM, the TGI [39] was greater than 100 µM and the TGI [40] was greater than 100 µM. For the same molecule, the TGI [41] was greater than 100 µM, the TGI [42] was greater than 100000 nM and the TGI [43] was greater than 100 µM. For the same molecule, the TGI [44] was greater than 100 µM, the TGI [45] was greater than 100 µM and the TGI [46] was greater than 100 µM. For the same molecule, the TGI [47] was greater than 100 µM, the TGI [48] was greater than 100 µM and the TGI [49] was greater than 100 µM. It also gave a TGI [50] greater than 100 µM, a TGI [51] greater than 100 µM and a TGI [52] greater than 100 µM. It also gave a TGI [53] greater than 100 µM, a TGI [54] greater than 100 µM and a TGI [55] greater than 100 µM. It also gave a TGI [56] greater than 100 µM, a TGI [57] greater than 100 µM and a TGI [58] greater than 100 µM. It also gave a TGI [59] greater than 100 µM.
